Experimental data: patent US8703771B2, “Preparation method of dihydroindene amide compounds, their pharmaceutical compositions containing compounds thereof and use as protein kinases inhibitor” (Harbin Gloria Pharmaceuticals Co., Ltd., priority 2008, dated 2014)
Where a name gives a salt, the structure may show the parent alone. Read-outs that look alike come from different tables or passages of the source.

Legend:
c-Kit [1] = biological target: T1, c-Kit (Homo sapiens (Human), UniProt P10721); experiment: Mobility Shift Assay of c-Kit kinase enzyme activity; format: biochemical; conditions: ATP at Km 87 μM, 40 minutes at 28° C., pre-activated c-Kit
T1 sequence (P10721 26-976): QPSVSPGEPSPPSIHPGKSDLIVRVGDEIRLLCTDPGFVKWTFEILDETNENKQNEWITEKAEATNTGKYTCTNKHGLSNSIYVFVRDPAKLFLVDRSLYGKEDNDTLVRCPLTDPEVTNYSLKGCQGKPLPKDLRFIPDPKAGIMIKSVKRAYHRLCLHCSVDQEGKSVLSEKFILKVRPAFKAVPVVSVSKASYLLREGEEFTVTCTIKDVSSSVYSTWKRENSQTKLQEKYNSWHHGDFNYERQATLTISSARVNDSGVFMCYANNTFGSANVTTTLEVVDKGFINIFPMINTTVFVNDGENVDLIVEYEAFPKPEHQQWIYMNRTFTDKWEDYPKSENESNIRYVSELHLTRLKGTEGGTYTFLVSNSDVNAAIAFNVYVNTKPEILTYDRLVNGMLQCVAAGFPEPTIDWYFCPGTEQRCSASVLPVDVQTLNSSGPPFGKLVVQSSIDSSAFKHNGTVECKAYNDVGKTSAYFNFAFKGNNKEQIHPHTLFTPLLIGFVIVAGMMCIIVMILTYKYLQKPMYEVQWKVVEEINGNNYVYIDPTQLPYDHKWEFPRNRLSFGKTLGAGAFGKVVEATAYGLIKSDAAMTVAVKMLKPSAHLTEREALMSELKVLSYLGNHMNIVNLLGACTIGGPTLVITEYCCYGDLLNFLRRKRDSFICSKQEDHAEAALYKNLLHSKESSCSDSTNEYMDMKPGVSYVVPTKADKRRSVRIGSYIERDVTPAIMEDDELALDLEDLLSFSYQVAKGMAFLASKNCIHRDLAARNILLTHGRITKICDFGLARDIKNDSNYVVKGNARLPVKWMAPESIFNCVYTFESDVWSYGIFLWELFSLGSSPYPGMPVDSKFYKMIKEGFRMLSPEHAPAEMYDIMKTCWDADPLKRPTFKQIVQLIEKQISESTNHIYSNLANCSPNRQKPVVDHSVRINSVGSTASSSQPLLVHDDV
Experimental: (§1) The activity of the compounds of this invention on Abl, c-Kit and PDGFR kinases was tested by Mobility Shift Assay (MSA).
(§2) • 1. Preparation of kinase buffer and stop buffer;
(§3) The compound was dissolved in DMSO and then serial dilutions were prepared; • 3. Preparation of kinase solution: Kinase solution was obtained by dissolving kinases in the kinase buffer mentioned above. With regard to c-Kit kinase, the pre-activation treatments should be carried out as follows. 700 nM c-Kit, 2 mM ATP, 4 mM DTT and 10 mM MgCl2 were dissolved in kinase buffer. After being incubated at 28° C. for 15 minutes, the solution was added to the kinase buffer; • 4. Preparation of polypeptide solution: Polypeptide FAM and ATP were dissolved in kinase buffer; • 5. The kinase solution was transferred to a culture plate and incubated for 10 minutes at room temperature. […] The polypeptide solution was transferred to the culture plate. […] The final concentrations of MgCl2 in all circumstances were all 10 mM; • 7. The mixture in each well of the plate was incubated at 28° C., for 1 hour for Abl, 40 minutes for c-Kit and 5 hours for PDGFR. The stop buffer was then added to terminate the reaction; • 8. Data were collected in Caliper and then input into the software XLfit to calculate IC50 values.

PDGFR (Homo sapiens) = experiment: Mobility Shift Assay of PDGFR kinase enzyme activity; format: biochemical; conditions: ATP at Km 38 μM, 5 hours at 28° C.
Sequence of PDGFR (Homo sapiens) (P09619 33-1106 limits assumed): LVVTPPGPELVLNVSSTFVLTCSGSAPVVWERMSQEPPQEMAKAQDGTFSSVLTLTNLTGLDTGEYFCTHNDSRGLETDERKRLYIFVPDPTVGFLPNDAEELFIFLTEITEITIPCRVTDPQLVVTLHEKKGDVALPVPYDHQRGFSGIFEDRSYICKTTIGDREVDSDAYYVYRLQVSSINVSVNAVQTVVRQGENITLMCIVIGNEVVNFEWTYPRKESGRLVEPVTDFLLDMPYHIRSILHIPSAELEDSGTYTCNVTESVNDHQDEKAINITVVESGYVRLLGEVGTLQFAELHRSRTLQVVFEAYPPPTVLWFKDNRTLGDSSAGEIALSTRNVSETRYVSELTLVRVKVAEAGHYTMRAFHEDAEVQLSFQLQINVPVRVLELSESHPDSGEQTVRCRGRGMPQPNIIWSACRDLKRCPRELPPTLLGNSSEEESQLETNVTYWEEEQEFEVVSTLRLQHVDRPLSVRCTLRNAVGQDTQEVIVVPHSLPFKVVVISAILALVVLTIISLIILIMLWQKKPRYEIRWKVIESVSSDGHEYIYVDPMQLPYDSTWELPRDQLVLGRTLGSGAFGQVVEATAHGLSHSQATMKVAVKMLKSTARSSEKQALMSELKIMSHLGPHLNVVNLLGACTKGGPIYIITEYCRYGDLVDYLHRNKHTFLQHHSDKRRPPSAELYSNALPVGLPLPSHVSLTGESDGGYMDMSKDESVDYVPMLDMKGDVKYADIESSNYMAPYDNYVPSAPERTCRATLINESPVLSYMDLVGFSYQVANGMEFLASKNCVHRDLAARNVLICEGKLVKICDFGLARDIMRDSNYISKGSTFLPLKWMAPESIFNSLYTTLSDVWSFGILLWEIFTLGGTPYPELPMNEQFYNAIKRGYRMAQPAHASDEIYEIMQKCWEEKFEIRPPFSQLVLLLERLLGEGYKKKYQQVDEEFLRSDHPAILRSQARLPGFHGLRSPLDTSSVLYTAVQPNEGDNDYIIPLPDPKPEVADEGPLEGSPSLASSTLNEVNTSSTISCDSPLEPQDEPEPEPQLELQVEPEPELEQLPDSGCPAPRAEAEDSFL
Experimental: as §1, §2, §3

c-Kit (D816H) = c-Kit (D816H) (Homo sapiens (Human), UniProt P10721, D816H); experiment: 33P-ATP kinase assay, c-Kit (D816H); format: biochemical; conditions: 33P-ATP assay; ATP concentration 30 μM
Sequence of c-Kit (D816H) (P10721 26-976 D816H): as the sequence (P10721 26-976) above, with D791H counted along it
Experimental: (§4) Inhibitory activity of the compounds of this invention on Abl, c-Kit and PDGFR mutant kinases was tested by the phosphor isotope-labelled ATP (^33P-ATP) assay. • 1. Substrate solution was prepared using newly-prepared reaction buffer. The buffer includes: 20 mM HEPES, pH 7.5, 10 mM MgCl2, 1 mM EGTA, 0.02% Brij 35, 0.02 mg/ml BSA, 0.1 mM Na3VO4, 2 mM DTT, 1% DMSO. […] Required co-enzymes were added to the above substrate solution; • 3. Kinases were added and mixed gently; • 4. The tested compound was dissolved in DMSO, and then added to the above kinase solution by using Acoustic technique (Echo550, nanoliter range) and incubated for 20 minutes; • 5. ^33P-ATP was added to the above reaction mixture to initiate the reaction; • 6. The mixture was incubated for 2 hours at room temperature; • 7. The activity of kinases was tested by filtration-combination; • 8. The data were processed in Excel and the control data were subtracted. A curve was drawn by the GraphPad Prism software to get the IC50 value.

c-Kit (V560G) = c-Kit (V560G) (Homo sapiens (Human), UniProt P10721, V560G); experiment: 33P-ATP kinase assay, c-Kit (V560G); format: biochemical; conditions: 33P-ATP assay; ATP concentration 30 μM
Sequence of c-Kit (V560G) (P10721 26-976 V560G): as the sequence (P10721 26-976) above, with V535G counted along it
Experimental: as §4

[2] = system: chronic myeloid leukaemia cell K562; experiment: cells; conditions: Homo sapiens, K562, 72 h, read-out: IC50 (nM) inhibition of K562 cell growth
c-Kit (T670I) = c-Kit (T670I) (Homo sapiens (Human), UniProt P10721, T670I); experiment: 33P-ATP kinase assay, c-Kit (T670I); format: biochemical; conditions: 33P-ATP assay; ATP concentration 30 μM
Sequence of c-Kit (T670I) (P10721 26-976 T670I): as the sequence (P10721 26-976) above, with T645I counted along it
Experimental: as §4

c-Kit (V654A) = c-Kit (V654A) (Homo sapiens (Human), UniProt P10721, V654A); experiment: 33P-ATP kinase assay, c-Kit (V654A); format: biochemical; conditions: 33P-ATP assay; ATP concentration 30 μM; 2 mM MnCl2 in buffer
Sequence of c-Kit (V654A) (P10721 26-976 V654A): as the sequence (P10721 26-976) above, with V629A counted along it
Experimental: as §4

c-Kit (D816V) = c-Kit (D816V) (Homo sapiens (Human), UniProt P10721, D816V); experiment: 33P-ATP kinase assay, c-Kit (D816V); format: biochemical; conditions: 33P-ATP assay; ATP concentration 30 μM
Sequence of c-Kit (D816V) (P10721 26-976 D816V): as the sequence (P10721 26-976) above, with D791V counted along it
Experimental: as §4

c-Kit [3] = biological target: T1, c-Kit; experiment: 33P-ATP kinase assay, c-Kit; format: biochemical; conditions: 33P-ATP assay; ATP concentration 30 μM; 2 mM MnCl2 in buffer
Experimental: as §4

[4] = system: acute myeloid leukaemia cell Kasumi-1; experiment: MTS growth inhibition assay, Kasumi-1 cell strain; format: cell-based; conditions: Homo sapiens, MTS/PMS, 72 hours
Experimental: (§5) This invention also tested the inhibitory activity of the compounds of this invention on the growth of chronic myeloid leukaemia cell K562, KU812, and MEG-01, acute myeloid leukaemia cell Kasumi-1 and acute lymphatic leukemia cell Sup-B15.
(§6) 1. Preparation of Assay Solution
(§7) (1) Preparation of PMS solution: PMS was dissolved in DPBS to give a concentration of […]. The solution was then filtered into a sterile and lightproof container;
(§8) (2) Preparation of MTS solution: a) 21 ml DPBS was added to a lightproof container; b) 42 mg MTS powder was weighted and then added to DPBS; c) the above were mixed on a electromagnetic stirrer until the powder was dissolved; d) the pH value was measured. […] If the pH was higher than 6.5, it should be adjust to 6.5 with 1 N HCl; e) the solution was filtered into a sterile and lightproof container; (3) Preparation of MTS/PMS mixture: a) 2 ml of the MTS solution was transferred to a tube; b) 100 μL of the PMS solution was added to the tube; c) the tube was vortexed gently to mix the solution thoroughly. 2. […] 3. […] 4.

[5] = system: chronic myeloid leukaemia cell K562; experiment: MTS growth inhibition assay, K562 cell strain; format: cell-based; conditions: Homo sapiens, MTS/PMS, 72 hours
Experimental: as §5, §6, §7, §8

[6] = system: chronic myeloid leukaemia cell KU812; experiment: MTS growth inhibition assay, KU812 cell strain; format: cell-based; conditions: MTS/PMS, 72 hours
Experimental: as §5, §6, §7, §8

[7] = system: acute lymphatic leukemia cell Sup-B15; experiment: MTS growth inhibition assay, Sup-B15 cell strain; format: cell-based; conditions: MTS/PMS, 72 hours
Experimental: as §5, §6, §7, §8

[8] = system: chronic myeloid leukaemia cell MEG-01; experiment: MTS growth inhibition assay, MEG-01 cell strain; format: cell-based; conditions: MTS/PMS, 72 hours
Experimental: as §5, §6, §7, §8

[9] = system: chronic myeloid leukaemia cell K562; conditions: read-out: IC50 (nM) inhibition of K562 cell growth; CellTiter-Glo; 72 hours

IC50 (c-Kit [1]) [nM] | IC50 (PDGFR (Homo sapiens)) [nM] | Compound | also measured
22 | 17 | Cc1ccc(NC(=O)c2ccc3c(c2)CCC3N2CCN(C)CC2)cc1Nc1nccc(-c2cccnc2)n1 (stereo not shown) [EXAMPLE 1, 1-(4-methylpiperazin-1-yl)-N-(4-methyl-3-[(4-pyridin-3-ylpyrimidin-2-yl)amino]phenyl)-2,3-dihydro-1H-inden-5-carboxamide] | –
16 | – | Cc1ccc(NC(=O)c2ccc3c(c2)CCC3N2CCNCC2)cc1Nc1nccc(-c2cccnc2)n1 (stereo not shown) [EXAMPLE 3, N-(4-methyl-3-[(4-pyridin-3-ylpyrimidin-2-yl)amino]phenyl)-1-piperazin-1-yl-2,3-dihydro-1H-indene-5-carboxamide] | –
23 | 18 | Cc1ccc(NC(=O)c2ccc3c(c2)CCC3N2CCN(C(C)C)CC2)cc1Nc1nccc(-c2cccnc2)n1 (stereo not shown) [EXAMPLE 5, 1-(4-isopropylpiperazin-1-yl)-N-(4-methyl-3-[(4-pyridin-3-ylpyrimidin-2-yl)amino]phenyl)-2,3-dihydro-1H-indene-5-carboxamide] | –
32 | 20 | Cc1ccc(NC(=O)c2ccc3c(c2)CCC3N2CCN(CCO)CC2)cc1Nc1nccc(-c2cccnc2)n1 (stereo not shown) [EXAMPLE 6] | –
529 | 41 | CC(=O)N1CCN(C2CCc3cc(C(=O)Nc4ccc(C)c(Nc5nccc(-c6cccnc6)n5)c4)ccc32)CC1 (stereo not shown) [EXAMPLE 7, 1-[4-acetylpiperazin-1-yl)-N-(4-methyl-3-[(4-pyridin-3-ylpyrimidin-2-yl)amino]phenyl)-2,3-dihydro-1H-indene-5-carboxamide] | –
32 | 22 | Cc1ccc(NC(=O)c2ccc3c(c2)CCC3N2CCN(C)CC2)cc1Nc1nccc(-c2cncnc2)n1 (stereo not shown) [EXAMPLE 8, N-[3-(4,5′-bipyrimidine-2-ylamino)-4-methylphenyl]-1-(4-methylpiperazin-1-yl)-2,3-dihydro-1H-indene-5-carboxamide] | –
2260 | 65 | Cc1ccc(NC(=O)c2ccc3c(c2)CC[C@H]3N2CCN(C)CC2)cc1Nc1nccc(-c2cncnc2)n1 [EXAMPLE 14, (1R)—N-[3-(4,5′-bipyrimidin-2-ylamino)-4-methylphenyl]-1-(4-methylpiperazin-1-yl)-2,3-dihydro-1H-indene-5-carboxamide] | –

The next lines start with the molecule.

Compound | IC50 (c-Kit [1]) [nM] | IC50 (PDGFR (Homo sapiens)) [nM] | also measured
Cc1ccc(NC(=O)c2ccc3c(c2)CCC3N2CCN(C(=O)OC(C)(C)C)CC2)cc1Nc1nccc(-c2cccnc2)n1 (stereo not shown) [EXAMPLE 2, tert-butyl 4-{5-[({4-methyl-3-[(4-pyridin-3-ylpyrimidin-2-yl)amino]phenyl}amino)carbonyl)-2,3-dihydro-1-H-inden-1-yl}piperazin-1-carboxylate] | 1190 | 233 | –
Cc1ccc(NC(=O)c2ccc3c(c2)CCC3N2CC[C@H](N(C)C)C2)cc1Nc1nccc(-c2cccnc2)n1 (stereo partly drawn) [EXAMPLE 9, 1-[(3S)-3-(dimethylamino)pyrrolidin-1-yl]-N-{4-methyl-3-[(4-pyridin-3-ylpyrimidin-2-yl)amino]phenyl}-2,3-dihydro-1H-indene-5-carboxamide] | 51 | 15 | –
Cc1ccc(NC(=O)c2ccc3c(c2)CC[C@@H]3N2CCN(C)CC2)cc1Nc1nccc(-c2cccnc2)n1 [EXAMPLE 11, (1S)-1-(4-methylpiperazin-1-yl)-N-(4-methyl-3-[(4-pyridin-3-ylpyrimidin-2-yl)amino]phenyl)-2,3-dihydro-1H-indene-5-carboxamide] | 8.5 | 9.6 | IC50 (c-Kit (D816H)): 83.6 nM; IC50 (c-Kit (V560G)): 1.77 nM; IC50 [2]: 3.2 nM; IC50 (c-Kit (T670I)): 2060 nM; IC50 (c-Kit (V654A)): 969 nM; IC50 (c-Kit (D816V)): 1740 nM; IC50 (c-Kit [3]): 132 nM
Cc1ccc(NC(=O)c2ccc3c(c2)CC[C@H]3N2CCN(C)CC2)cc1Nc1nccc(-c2cccnc2)n1 [EXAMPLE 12, (1R)-1-(4-methylpiperazin-1-yl)-N-(4-methyl-3-[(4-pyridin-3-ylpyrimidin-2-yl)amino]phenyl)-2,3-dihydro-1H-indene-5-carboxamide] | 2250 | 53 | IC50 [2]: 208 nM
Cc1ccc(NC(=O)c2ccc3c(c2)CC[C@@H]3N2CCN(C)CC2)cc1Nc1nccc(-c2cncnc2)n1 [EXAMPLE 13, (1S)—N-[3-(4,5′-bipyrimidin-2-ylamino)-4-methylphenyl]-1-(4-methylpiperazin-1-yl)-2,3-dihydro-1H-indene-5-carboxamide] | 15 | 13 | IC50 [2]: 2.2 nM
Cc1ccc(NC(=O)c2ccc3c(c2)CC[C@@H]3N2CCN(C)CC2)cc1Nc1nccc(-c2ccncc2)n1 [EXAMPLE 15, (1S)-1-(4-methylpiperazin-1-yl)-N-(4-methyl-3-[(4-pyridin-4-ylpyrimidin-2-yl)amino]phenyl)-2,3-dihydro-1H-indene-5-carboxamide] | 526 | 24 | IC50 [2]: 35 nM
Cc1ccc(NC(=O)c2ccc3c(c2)CC[C@@H]3N2CCN(C)CC2)cc1Nc1nccc(-c2cccnc2)n1 [EXAMPLE 16, (1S)-1-(4-methylpiperazin-1-yl)-N-(4-methyl-3-[(4-pyridin-3-ylpyrimidin-2-yl)amino]phenyl)-2,3-dihydro-1H-indene-5-carboxamide sulfate] | – | – | IC50 [4]: 11.2 nM; IC50 [5]: 0.25 nM; IC50 ([6]; Homo sapiens, KU812): 0.024 nM; IC50 ([7]; Homo sapiens, SUP-B15): 39.6 nM; IC50 ([8]; Homo sapiens, MEG-01): 0.085 nM
Cc1cn(-c2cc(NC(=O)c3ccc(C)c(Nc4nccc(-c5cccnc5)n4)c3)cc(C(F)(F)F)c2)cn1 [Nilotinib] | – | – | IC50 [4]: 22.3 nM; IC50 [5]: 6.26 nM; IC50 ([6]; Homo sapiens, KU812): 2.1 nM; IC50 ([7]; Homo sapiens, SUP-B15): 135 nM; IC50 ([8]; Homo sapiens, MEG-01): 1.65 nM
CN[C@@H]1C[C@H]2O[C@@](C)([C@@H]1OC)n1c3ccccc3c3c4c(c5c6ccccc6n2c5c31)C(=O)NC4 [Staurosporine] | – | – | IC50 [6]: 9.57 nM; IC50 [9]: 139 nM; IC50 [7]: 6.84 nM; IC50 [8]: 8.97 nM
